Patent US7199118B2, “Benzothiazine derivatives, their preparation and use” (NeuroSearch A/S, priority 2001, dated 2007)

How the values were obtained:
[1] = tested on: AMPA receptor; test: Electrophysiological whole cell patch clamp experiments: potentiation of AMPA-induced current; assay type: cell-based, mouse; details: for concentration dependence of the potentiating effect: Compound 23a at 10, 30 and 100 μM, Compound 27a at 0.1-100 μM, 30 μM AMPA; for effect on the current induced by application of 30 μM AMPA: cultured mouse neocortical neurons, voltage clamp -60 mV, AMPA 30 μM for 1 second every 45 seconds, test concentrations per FIGS. 2-8 (Cpd 21 15 μM; 22, 24, 25 10 μM; 23a 10-100 μM; 26 3 μM; 27a 0.1-100 μM)
Protocol: Electrophysiological Patch Clamp Experiments
Experiments were performed in voltage clamp using conventional whole cell patch clamp methods (see Hamill O P, Marty A, Neher E, Sakmann B & Sigworth F J: Improved patch-clamp techniques for high-resolution current recording from cells and cell-free membrane patches; Pflügers Arch. 1981 39 85–100), essentially as described Mathiesen et al. (Mathiesen C, Varming T & Jensen L H: In vivo and in vitro evaluation of AMPA receptor antagonists in rat hippocampal neurones and cultured mouse cortical neurons; Eur. J. Pharmacol. 1998 353 159–167).
The following salt solutions were used (mM): NaCl (140), KCl (4), CaCl2 (2), MgCl2 (1), Sucrose (30; Available from Fluka Chemie, Buchs, Switzerland), Tetrodotoxin (0.0003; Available from Alomone Labs, Jerusalem, Israel), Bicuculline Methiodide (0.005; Available from RBI, MA, USA) and HEPES (10, pH 7.4).
Intracellular solution (mM): CsCl (120), CsF (20), MgCl2 (2), EGTA (10), ATP (4), HEPES (10, pH=7.2).
Cell cultures: Mouse neocortical neurons were cultured essentially as described by Drejer et al. (Drejer J, Honoré T & Schousboe A: Excitatory amino acid-induced release of ^3H-GABA from cultured mouse cerebral cortex interneurons; J. Neurosci. 1987 7 2910–2916).
Briefly, the forebrains from embryonic (E17) NMRI mice were removed under sterile conditions. Pregnant (9 days) NMRI mice were obtained from Bomholtgaard Breeding and Research Center, Ry, Denmark. The tissue was chopped in 0.4 mm cubes and the triturated with trypsin (12.5 μg/ml) and DNAse (2.5 μg/ml), 15 minutes, 37° C. The cells were suspended at a concentration of 1×10^6 cells/ml in a slightly modified DMEM containing horse serum (10% (v/v)), penicillin (333 U/ml), paraaminobenzoic acid (1 μg/ml), L-glutamine (0.5 mM), insulin (0.08 U/ml) and KCl (23.8 mM). Horse serum, N2 supplement and culture media were purchased from Life Technologies (GIBCO), Roskilde, Denmark.
The cell suspension was subsequently inoculated into poly-L-lysine coated 35 mm Petri dishes (2 ml/dish). Glass coverslips (3.5 mm) were placed in the dishes before coating. After 24 hours in culture, the medium was replaced by freshly made medium containing 1% N2 supplement instead of serum.
The cells were kept in culture for 7–14 days at 37° C. (5% CO2/95% O2) before experiments were carried out.
Electronics, programs and data acquisition: The amplifier used was the EPC-9 (HEKA-electronics, Lambrect, Germany) run by a Power Macintosh G3 computer via an ITC-16 interface. Experimental conditions were set with the Pulse-software accompanying the amplifier. Data were low pass filtered and sampled directly to hard-disk at a rate of 3 times the cut-off frequency.
Pipettes and electrodes: Pipettes were pulled from borosilicate glass (Modulohm, Copenhagen, Denmark) using a horizontal electrode puller (Zeitz-Instrumente, Augsburg, Germany). The pipette resistances were 1.7–2.4 MΩ in the salt solutions used in these experiments. The pipette electrode was a chloridized silver wire, and the reference was a silverchloride pellet electrode (In Vivo Metric, Healdsburg, USA) fixed to the experimental chamber. The electrodes were zeroed with the open pipette in the bath just prior to sealing.
Experimental procedure: Coverslips were transferred to a 15 μl experimental chamber mounted on the stage of an inverted microscope (IMT-2, Olympus) supplied with Nomarski optics. The neurons were continuously superfused with extracellular saline at a rate of 2.5 ml/min. After giga-seal formation (1–5 GΩ, success-rate≈90%) the whole cell configuration was attained by suction.
The cells were held at a holding voltage of −60 mV, and at the start of each experiment the current was continuously measured for at least 30 seconds to ensure a stable leak current.
AMPA-containing solutions were delivered to the chamber through a custom-made gravity-driven flowpipe, the tip of which was placed approximately 50 μm from the cell. […]

## Cc1cc2c(cc1S(=O)(=O)N1CCN(C)CC1)S(=O)(=O)NC(C1CCCC1)C2 (racemic) [Compound 27a, (3RS)-3-Cyclopentyl-6-methyl-7-(4-methyl-piperazine-1-sulfonyl)-3,4-dihydro-2H-benzo[e][1,2]thiazine-1,1-dioxide]
[1]
  concentration dependence of the potentiating effect: concentration-dependent
  effect on the current induced by application of 30 μM AMPA: potentiate the current induced by application of 30 μM AMPA

## O=S1(=O)NC(C2CCCCC2)Cc2ccc(S(=O)(=O)N3CCCCC3)cc21 (racemic) [Compound 21, (3RS)-3-Cyclohexyl-7-(piperidine-1-sulfonyl)-3,4-dihydro-2H-benzo[e][1,2]thiazine-1,1-dioxide]
[1]
  effect on the current induced by application of 30 μM AMPA: potentiate the current induced by application of 30 μM AMPA

## CN1CCN(S(=O)(=O)c2ccc3c(c2)S(=O)(=O)NC(C2CCCCC2)C3)CC1 (racemic) [Compound 24, (3RS)-3-Cyclohexyl-7-(4-methyl-piperazine-1-sulfonyl)-3,4-dihydro-2H-benzo[e][1,2]thiazine-1,1-dioxide]
[1]
  effect on the current induced by application of 30 μM AMPA: potentiate the current induced by application of 30 μM AMPA

## CN1CCN(S(=O)(=O)c2ccc3c(c2)S(=O)(=O)NC(C2CCCC2)C3)CC1.Cl (racemic)
other
  melting point: 234 to 236 °C

## O=S1(=O)NC(C2CCCC2)Cc2ccc(S(=O)(=O)N3CCCCC3)cc21 (racemic) [Compound 22, (3RS)-3-Cyclopentyl-7-(piperidine-1-sulfonyl)-3,4-dihydro-2H-benzo[e][1,2]thiazine-1,1-dioxide]
[1]
  effect on the current induced by application of 30 μM AMPA: potentiate the current induced by application of 30 μM AMPA

## CN1CCN(S(=O)(=O)c2ccc3c(c2)S(=O)(=O)NC(C2CCCC2)C3)CC1 (racemic) [Compound 23a, (3RS)-3-Cyclopentyl-7-(4-methyl-piperazine-1-sulfonyl)-3,4-dihydro-2H-benzo[e][1,2]thiazine-1,1-dioxide]
[1]
  concentration dependence of the potentiating effect: concentration-dependent
  effect on the current induced by application of 30 μM AMPA: potentiate the current induced by application of 30 μM AMPA

## Cc1cc2c(cc1S(=O)(=O)N1CCCCC1)S(=O)(=O)NC(C1CCCC1)C2 (racemic) [Compound 25, (3RS)-3-Cyclopentyl-6-methyl-7-(piperidine-1-sulfonyl)-3,4-dihydro-2H-benzo[e][1,2]thiazine-1,1-dioxide]
[1]
  effect on the current induced by application of 30 μM AMPA: potentiate the current induced by application of 30 μM AMPA

## Cc1cc2c(cc1S(=O)(=O)N1CCN(C)CC1)S(=O)(=O)NC(C1CCCC1)C2.Cl (racemic)
other
  melting point: 251 °C (dec.)

## Cc1cc2c(cc1S(=O)(=O)N1CCOCC1)S(=O)(=O)NC(C1CCCC1)C2 (racemic) [Compound 26, (3RS)-3-Cyclopentyl-6-methyl-7-(morpholine-4-sulfonyl)-3,4-dihydro-2H-benzo[e][1,2]thiazine-1,1-dioxide]
[1]
  effect on the current induced by application of 30 μM AMPA: potentiate the current induced by application of 30 μM AMPA
